Laboratory results: the NIST ThermoML archive (doi:10.1016/j.jct.2012.06.031)

Assay: refractive index (Na D-line) (dimensionless); xn = mol fraction of the nth substance listed
Details: 101 kPa, Liquid, Standard Abbe refractometry

CC(O)CO (stereo not given) [1,2-propanediol] + c1ccncc1
refractive index
Details	x2 = 0	x2 = 0.1	x2 = 0.2	x2 = 0.2999	x2 = 0.4	x2 = 0.4999	x2 = 0.6	x2 = 0.7001	x2 = 0.8	x2 = 0.9
288.15 K	1.43411	1.44356	1.4522	1.46041	1.46838	1.47609	1.48375	1.49129	1.49866	1.50554
293.15 K	1.43247	1.4418	1.4503	1.4584	1.46629	1.47383	1.4814	1.48884	1.49609	1.50288
298.15 K	1.43081	1.43993	1.44839	1.4564	1.46417	1.47163	1.47909	1.4864	1.49345	1.49993
303.15 K	1.42915	1.43816	1.4465	1.45438	1.46204	1.4694	1.47676	1.48397	1.49093	1.49727
308.15 K	1.42751	1.43643	1.44465	1.45244	1.46	1.46728	1.47448	1.48152	1.48841	1.49461
313.15 K	1.42581	1.43463	1.44276	1.45051	1.45802	1.46517	1.47224	1.4791	1.48589	1.49195
318.15 K	1.42407	1.43286	1.44082	1.44855	1.45597	1.46296	1.46991	1.47665	1.48321	1.4894
323.15 K	1.4223	1.43109	1.439	1.44676	1.45397	1.46088	1.46777	1.47441	1.48086	1.4869

OCCCO [propan-1,3-diol] + c1ccncc1
refractive index
Details	x2 = 0	x2 = 0.0999	x2 = 0.2	x2 = 0.3	x2 = 0.4001	x2 = 0.5	x2 = 0.5999	x2 = 0.7	x2 = 0.7998	x2 = 0.8998
288.15 K	1.44089	1.44922	1.45763	1.46592	1.47372	1.4809	1.48773	1.49409	1.49986	1.50582
293.15 K	1.43947	1.44774	1.45599	1.46414	1.47185	1.47889	1.48556	1.4918	1.49743	1.50319
298.15 K	1.43805	1.44619	1.45436	1.46235	1.46995	1.47685	1.4834	1.4895	1.495	1.50057
303.15 K	1.43665	1.44473	1.45279	1.46061	1.46805	1.47482	1.48124	1.4872	1.49257	1.49795
308.15 K	1.43526	1.44328	1.45118	1.45892	1.46621	1.4728	1.47907	1.48491	1.49016	1.49536
313.15 K	1.43387	1.44171	1.44953	1.45718	1.46432	1.47092	1.47707	1.48267	1.48778	1.49276
318.15 K	1.43244	1.4402	1.44788	1.45542	1.4624	1.4689	1.47491	1.48045	1.4855	1.49023
323.15 K	1.43099	1.43869	1.44628	1.45378	1.46051	1.467	1.47312	1.47837	1.4833	1.48788

c1ccncc1 [pyridine] + CCCO
refractive index
Details	x1 = 0.1001	x1 = 0.1998	x1 = 0.2999	x1 = 0.3998	x1 = 0.5	x1 = 0.5999	x1 = 0.7	x1 = 0.8	x1 = 0.8998	x1 = 1
288.15 K	1.40196	1.41533	1.42836	1.44094	1.45341	1.46554	1.47748	1.48907	1.50064	1.51184
293.15 K	1.39979	1.41307	1.42603	1.43854	1.45095	1.46301	1.47487	1.4864	1.49788	1.509
298.15 K	1.39757	1.41079	1.42367	1.43616	1.44848	1.46047	1.47228	1.48375	1.49514	1.50616
303.15 K	1.39535	1.40849	1.42136	1.43375	1.44601	1.45795	1.46968	1.48107	1.49238	1.50331
308.15 K	1.3931	1.40618	1.41898	1.43132	1.44353	1.45541	1.46708	1.47839	1.48965	1.50048
313.15 K	1.39068	1.40381	1.41659	1.42891	1.44102	1.45287	1.46445	1.47573	1.48683	1.49769
318.15 K	1.3884	1.40151	1.41425	1.42648	1.43857	1.45038	1.46187	1.47309	1.48411	1.49493
323.15 K	1.38622	1.39909	1.41179	1.42409	1.43616	1.44788	1.45942	1.47055	1.48155	1.49219

c1ccncc1 [pyridine] + OCC(O)CO
refractive index
Details	x1 = 0.1	x1 = 0.2001	x1 = 0.3001	x1 = 0.4	x1 = 0.4998	x1 = 0.6001	x1 = 0.6999	x1 = 0.8001	x1 = 0.8999	x1 = 1
288.15 K	1.48103	1.48616	1.49108	1.49581	1.49973	1.50321	1.50634	1.50874	1.51057	1.51184
293.15 K	1.47967	1.48469	1.48946	1.49406	1.49786	1.50115	1.50412	1.50638	1.50796	1.509
298.15 K	1.47829	1.48318	1.48784	1.49227	1.49597	1.49954	1.50189	1.504	1.50535	1.50616
303.15 K	1.4769	1.48167	1.48619	1.49055	1.49411	1.49711	1.49967	1.50162	1.50275	1.50331
308.15 K	1.47553	1.48015	1.48454	1.48882	1.49222	1.49515	1.49743	1.49927	1.50017	1.50048
313.15 K	1.47412	1.47863	1.48286	1.48703	1.49024	1.49307	1.49542	1.49699	1.49777	1.49769
318.15 K	1.47272	1.47699	1.4812	1.48522	1.48844	1.49119	1.49319	1.4947	1.49512	1.49493
323.15 K	1.47138	1.47548	1.47953	1.48348	1.48658	1.48919	1.49101	1.4924	1.4926	1.49219
